Consider 43 compounds from US7893074B2, “2, 4-pyrimidinediamines useful in the treatment of neoplastic diseases, inflammatory and immune system disorders” (Novartis AG, priority 2003, dated 2011).

The target of one assay is FAK (Mus musculus, UniProt P34152). Nature of the assay: Phos IC50 (phosphorylation). The format is cell-based.
The target in assay [1] is Focal Adhesion Kinase (FAK) (Homo sapiens, UniProt Q05397). Nature of the assay: FAK assay system (Focal Adhesion Kinase inhibition). The settings on record: read-out: FAK IC50. It is filed as biochemical.
Assay [2] has as its system Mouse mammary carcinoma 4T1 cells. Nature of the assay: Anchorage-independent tumor cell growth assay. The format is cell-based. The protocol:
Cells are cultured for 2 h and inhibitors are added at various concentrations in a final concentration of 0.1% DMSO. After 48 h, cell growth is assayed with the cell counting kit-8 (Wako Pure Chemical), which uses a water soluble tetrazolium salt WST8. Twenty μL of the reagent is added into each well and cells are further cultured for 2 h. The optical density is measured at 450 nm.

Where two headings read alike, the source gives them in different places.

In general, IC50 refers to the concentration that gives 50% inhibition.

Sequence of FAK (P34152 2-1052): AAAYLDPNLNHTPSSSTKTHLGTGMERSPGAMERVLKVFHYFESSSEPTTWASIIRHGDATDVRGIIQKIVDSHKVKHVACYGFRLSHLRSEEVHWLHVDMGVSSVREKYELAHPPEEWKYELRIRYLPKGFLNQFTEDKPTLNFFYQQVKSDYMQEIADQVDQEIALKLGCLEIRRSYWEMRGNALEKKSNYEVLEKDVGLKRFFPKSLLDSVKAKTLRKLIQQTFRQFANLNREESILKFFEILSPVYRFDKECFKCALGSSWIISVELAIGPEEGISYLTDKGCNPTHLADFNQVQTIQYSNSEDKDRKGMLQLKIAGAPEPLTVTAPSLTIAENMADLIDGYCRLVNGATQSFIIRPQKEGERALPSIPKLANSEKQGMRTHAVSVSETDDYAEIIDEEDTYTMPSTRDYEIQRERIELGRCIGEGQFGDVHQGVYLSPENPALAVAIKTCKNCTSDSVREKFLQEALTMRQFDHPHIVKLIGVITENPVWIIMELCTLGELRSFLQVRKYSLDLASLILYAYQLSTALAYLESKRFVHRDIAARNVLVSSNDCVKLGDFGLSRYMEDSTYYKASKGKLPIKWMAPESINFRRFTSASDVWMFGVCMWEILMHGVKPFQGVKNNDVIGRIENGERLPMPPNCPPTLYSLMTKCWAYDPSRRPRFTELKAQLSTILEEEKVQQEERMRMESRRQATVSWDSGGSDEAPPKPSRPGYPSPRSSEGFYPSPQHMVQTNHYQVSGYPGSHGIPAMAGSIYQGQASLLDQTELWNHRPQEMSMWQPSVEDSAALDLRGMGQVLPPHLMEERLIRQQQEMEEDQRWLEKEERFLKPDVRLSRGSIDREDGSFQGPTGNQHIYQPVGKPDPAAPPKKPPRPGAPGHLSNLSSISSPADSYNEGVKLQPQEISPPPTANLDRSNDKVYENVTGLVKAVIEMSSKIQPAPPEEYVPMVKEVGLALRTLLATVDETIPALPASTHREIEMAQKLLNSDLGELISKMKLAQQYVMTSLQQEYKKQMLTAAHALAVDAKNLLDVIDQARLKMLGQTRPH
Sequence of Focal Adhesion Kinase (FAK) (Q05397 384-706): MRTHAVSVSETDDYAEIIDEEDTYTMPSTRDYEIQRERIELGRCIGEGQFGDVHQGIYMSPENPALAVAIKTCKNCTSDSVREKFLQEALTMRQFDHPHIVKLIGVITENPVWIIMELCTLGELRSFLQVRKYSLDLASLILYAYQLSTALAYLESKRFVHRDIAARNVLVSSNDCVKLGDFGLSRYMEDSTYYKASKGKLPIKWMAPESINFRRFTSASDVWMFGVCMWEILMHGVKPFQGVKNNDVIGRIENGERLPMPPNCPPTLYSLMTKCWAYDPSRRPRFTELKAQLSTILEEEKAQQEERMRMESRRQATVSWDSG

Regarding `CNS(=O)(=O)c1ccccc1Nc1nc(Nc2cccc3c2OC(F)(F)O3)ncc1Br` [Example 3-1], the IC50 is 340 nM at FAK; 44 nM in assay [1]; more than 10000 nM in assay [2] (Mus musculus, 4T1).

As to `CCC(CC)S(=O)(=O)c1ccccc1Nc1nc(Nc2ccc(N3CCC(N4CCCCC4)CC3)cc2OC)ncc1Cl` [Example 29-2], the IC50 was 700 nM at FAK; 3.3 nM in assay [1]; 1100 nM in assay [2] (Mus musculus, 4T1).

For the compound `CNC(=O)c1c(C)cccc1Nc1nc(Nc2ccc(N3CCOCC3)cc2OC)ncc1Cl` [Example 10-3], the IC50 on FAK is 900 nM; in assay [1] it was 23 nM; in assay [2] (Mus musculus, 4T1), 2400 nM.

For the compound `COc1cc(N2CCOCC2)ccc1Nc1ncc(Cl)c(Nc2ccccc2S(=O)(=O)Cc2ccccc2)n1` [Example 34-5], the IC50 against FAK stood at 360 nM; in assay [1] it was 51 nM; in assay [2] (Mus musculus, 4T1) it was 5100 nM.

For the compound `CNS(=O)(=O)c1ccccc1Nc1nc(Nc2cc(F)ccc2Cl)ncc1Br` [Example 3-38], the IC50 came to 1700 nM on FAK; 64 nM in assay [1]; 3800 nM in assay [2] (Mus musculus, 4T1).

Consider `CNC(=O)c1cc(N2CCC(N3CCCCC3)CC2)ccc1Nc1nc(Nc2ccc(F)cc2OC)ncc1Cl` [Example 16-4], for which the IC50 was more than 10000 nM on FAK; 9.5 nM in assay [1]; 920 nM in assay [2] (Mus musculus, 4T1).

For the compound `CNC(=O)c1cc(OC)ccc1Nc1nc(Nc2ccc(F)cc2OC)ncc1Cl` [Example 16-3], the IC50 is 3000 nM on FAK; 21 nM in assay [1]; more than 10000 nM in assay [2] (Mus musculus, 4T1).

Consider `CNC(=O)c1ccccc1Nc1nc(Nc2ccc(OCCN3CCN(C)CC3)cc2OC)ncc1Cl` [Example 7-21], for which the IC50 against FAK is more than 10000 nM; in assay [1], 3.3 nM; in assay [2] (Mus musculus, 4T1), 460 nM.

Consider `CCS(=O)(=O)c1ccccc1Nc1nc(Nc2ccc(N3CCC(N4CCOCC4)CC3)cc2OC)ncc1Cl` [Example 27-4], for which the IC50 on FAK is 100 nM; in assay [1] it was 11 nM; in assay [2] (Mus musculus, 4T1), 270 nM.

For `COc1cc(N2CCN3COCC[C@H]3C2)ccc1Nc1ncc(Cl)c(Nc2ccccc2S(=O)(=O)C(C)C)n1` [Example 28-26], the concentration for half-maximal inhibition (IC50) against FAK was 200 nM; in assay [1], 6.6 nM; in assay [2] (Mus musculus, 4T1), 570 nM.

Turning to `CNS(=O)(=O)c1ccccc1Nc1nc(Nc2ccc(F)cc2Cl)ncc1Br` [Example 3-37], the IC50 on FAK came out at 1100 nM; in assay [1], 39 nM; in assay [2] (Mus musculus, 4T1), 2600 nM.

For the compound `CNC(=O)c1ccccc1Nc1nc(Nc2ccc(OCC3CCN(C)CC3)cc2OC)ncc1Cl` [Example 7-20], the IC50 against FAK is more than 10000 nM; in assay [1], 2.5 nM; in assay [2] (Mus musculus, 4T1), 110 nM.

Take `CNS(=O)(=O)c1ccccc1Nc1nc(Nc2cc(N3CCN(C(C)=O)CC3)ccc2OC)ncc1Cl` [Example 20-34]: the concentration for half-maximal inhibition (IC50) on FAK worked out at 1000 nM; in assay [1], 13 nM; in assay [2] (Mus musculus, 4T1), 120 nM.

Turning to `Cc1cc(N2CCOCC2)ccc1Nc1ncc(Cl)c(Nc2ccccc2S(=O)(=O)C(C)C)n1` [Example 28-6], the IC50 against FAK amounted to 600 nM; in assay [1] it was 17 nM; in assay [2] (Mus musculus, 4T1), 560 nM.

In the case of `CCN(CC)C(=O)C1CCCN(c2ccc(Nc3ncc(Cl)c(Nc4ccccc4S(=O)(=O)NC(C)C)n3)c(OC)c2)C1` (stereo not drawn) [Example 19-18], the IC50 came to 130 nM on FAK; 7 nM in assay [1]; 870 nM in assay [2] (Mus musculus, 4T1).

As to `CNS(=O)(=O)c1ccccc1Nc1nc(Nc2cc(OC3CCNCC3)ccc2OC)ncc1Br` [Example 3-78], the IC50 against FAK was more than 10000 nM; in assay [1], 10 nM; in assay [2] (Mus musculus, 4T1) it was 220 nM.

With `CCS(=O)(=O)c1ccccc1Nc1nc(Nc2ccc(N3CCCC(C(N)=O)C3)cc2OC)ncc1Cl` (stereo not drawn) [Example 27-6], the IC50 at FAK was determined as 80 nM; in assay [1], 1 nM; in assay [2] (Mus musculus, 4T1), 310 nM.

For the compound `CNS(=O)(=O)c1ccccc1Nc1nc(Nc2ccccc2OC(F)F)ncc1Cl` [Example 20-4], the IC50 was 580 nM against FAK; 23 nM in assay [1]; 1900 nM in assay [2] (Mus musculus, 4T1).

Take `COc1cc(N2CCC(C(N)=O)CC2)ccc1Nc1ncc(Cl)c(Nc2ccccc2S(=O)(=O)C(C)C)n1` [Example 28-15]: the IC50 was 500 nM at FAK; 10 nM in assay [1]; 690 nM in assay [2] (Mus musculus, 4T1).

As for `CCCOc1ccc(OC)cc1Nc1ncc(Br)c(Nc2ccccc2S(=O)(=O)NC)n1` [Example 3-63], the IC50 is more than 10000 nM against FAK; 27 nM in assay [1]; more than 10000 nM in assay [2] (Mus musculus, 4T1).

Turning to `CNC(=O)c1cc(F)ccc1Nc1nc(Nc2cccc3c2ccn3C)ncc1Cl` [Example 11-3], the IC50 against FAK is 410 nM; in assay [1], 26 nM; in assay [2] (Mus musculus, 4T1) it was 100 nM.

Consider `CCOc1ccc(N2CCOCC2)cc1Nc1ncc(Br)c(Nc2ccccc2S(=O)(=O)NC)n1` [Example 3-57], for which the IC50 worked out at 610 nM against FAK; 28 nM in assay [1]; 3000 nM in assay [2] (Mus musculus, 4T1).

On to `NS(=O)(=O)c1ccccc1Nc1nc(Nc2cccc3c2OC(F)(F)O3)ncc1Br` [Compound 6, 2-[5-Bromo-2-(2,3-[difluoromethylenedioxy]phenylamino)-pyrimidin-4-ylamino]-benzenesulfonamide], for which the IC50 was 350 nM on FAK; 110 nM in assay [1]; 5000 nM in assay [2] (Mus musculus, 4T1).

For the compound `COc1cc(N2CCC(OC)CC2)ccc1Nc1ncc(Cl)c(Nc2ccccc2S(=O)(=O)C(C)C)n1` [Example 28-18], the IC50 at FAK is more than 10000 nM; in assay [1], 9.1 nM; in assay [2] (Mus musculus, 4T1), 2030 nM.

Consider `COc1cc(N2CCCC(C(N)=O)C2)ccc1Nc1ncc(Cl)c(Nc2ccccc2S(=O)(=O)C2CC2)n1` (stereo not drawn) [Example 30-3], for which the IC50 came to 500 nM on FAK; 19 nM in assay [1]; 680 nM in assay [2] (Mus musculus, 4T1).

Regarding `CNC(=O)c1cc(N2CCOCC2)ccc1Nc1nc(Nc2ccc(N3CCN(C(C)=O)CC3)cc2OC)ncc1Cl` [Example 18-1], the IC50 against FAK is more than 10000 nM; in assay [1], 19 nM; in assay [2] (Mus musculus, 4T1), 1290 nM.

In the case of `COc1cc(-n2cncn2)ccc1Nc1ncc(Cl)c(Nc2ccccc2S(=O)(=O)C2CC2)n1` [Example 30-4], the IC50 against FAK came to 300 nM; in assay [1], 25 nM; in assay [2] (Mus musculus, 4T1), 990 nM.

`COc1cc(N2CCOCC2)ccc1Nc1ncc(Cl)c(Nc2ccccc2S(=O)(=O)C(C)C)n1` [Example 28-3]: the IC50 on FAK was 70 nM; in assay [1], 7.4 nM; in assay [2] (Mus musculus, 4T1) it was 290 nM.

`CCC(CC)NS(=O)(=O)c1ccccc1Nc1nc(Nc2ccc(OCCN3CCN(C)CC3)cc2OC)ncc1Cl` [Example 23-9]: the IC50 against FAK came to 200 nM; in assay [1] it was 2.1 nM; in assay [2] (Mus musculus, 4T1) it was 280 nM.

As for `COc1cc(N2CCC(N3CCN(C)CC3)CC2)ccc1Nc1ncc(Cl)c(Nc2ccccc2S(=O)(=O)C2CC2)n1` [Example 30-7], the IC50 against FAK is 600 nM; in assay [1] it was 8.8 nM; in assay [2] (Mus musculus, 4T1) it was 470 nM.

Turning to `CNS(=O)(=O)c1ccccc1Nc1nc(Nc2ccc(F)cc2OC)ncc1Cl` [Example 20-24], the IC50 at FAK was determined as 480 nM; in assay [1], 19 nM; in assay [2] (Mus musculus, 4T1), 2000 nM.

Consider `COc1cc(N2CCC(NC(C)=O)C2)ccc1Nc1ncc(Cl)c(Nc2ccccc2S(=O)(=O)NC(C)C)n1` (stereo not drawn) [Example 19-13], for which the IC50 on FAK is 300 nM; in assay [1], 2.5 nM; in assay [2] (Mus musculus, 4T1) it was 1100 nM.

For `CNC(=O)c1ccccc1Nc1nc(Nc2ccc(N3CCC(OCCOC)CC3)cc2OC)ncc1Cl` [Example 7-10], the IC50 at FAK is 1000 nM; in assay [1] it was 6.6 nM; in assay [2] (Mus musculus, 4T1), 980 nM.

Consider `COc1cc(N2CCC(N(C)C)C2)ccc1Nc1ncc(Cl)c(Nc2ccccc2S(=O)(=O)C(C)C)n1` (stereo not drawn) [Example 28-22], for which the IC50 at FAK came out at 100 nM; in assay [1] it was 1.3 nM; in assay [2] (Mus musculus, 4T1) it was 300 nM.

In the case of `CCOc1ccc(OCC)c(Nc2ncc(Br)c(Nc3ccccc3S(=O)(=O)NC)n2)c1` [Example 3-55], the IC50 against FAK is more than 10000 nM; in assay [1] it was 34 nM; in assay [2] (Mus musculus, 4T1), 3000 nM.

For `CNS(=O)(=O)c1ccccc1Nc1nc(Nc2ccc(OCCCN3CCOCC3)cc2C)ncc1Br` [Example 3-71], the IC50 on FAK stood at 50 nM; in assay [1], 11 nM; in assay [2] (Mus musculus, 4T1) it was 80 nM.

Turning to `COc1cc(OCC2CCCCN2C)ccc1Nc1ncc(Cl)c(Nc2ccccc2S(=O)(=O)NC(C)C)n1` (stereo not drawn) [Example 19-17], the IC50 is more than 10000 nM at FAK; 1 nM in assay [1]; 170 nM in assay [2] (Mus musculus, 4T1).

For `COc1cc(F)ccc1Nc1ncc(Cl)c(Nc2ccccc2S(C)(=O)=O)n1` [Example 31-1], the IC50 against FAK is more than 10000 nM; in assay [1], 30 nM; in assay [2] (Mus musculus, 4T1), 1600 nM.

As to `CCCS(=O)(=O)c1ccccc1Nc1nc(Nc2ccc(F)cc2OC)ncc1Cl` [Example 26-30], the IC50 at FAK amounted to 1000 nM; in assay [1], 4.4 nM; in assay [2] (Mus musculus, 4T1), 760 nM.

`COc1cc(N2CCOCC2)ccc1Nc1ncc(Cl)c(Nc2ccccc2S(=O)(=O)C2CC2)n1` [Example 30-1]: the IC50 at FAK came out at 200 nM; in assay [1], 22 nM; in assay [2] (Mus musculus, 4T1), 890 nM.

Take `CCCS(=O)(=O)c1ccccc1Nc1nc(Nc2ccc(N3CCC[C@H](C(N)=O)C3)cc2OC)ncc1Cl` [Example 26-12]: the IC50 worked out at 200 nM on FAK; 3.7 nM in assay [1]; 190 nM in assay [2] (Mus musculus, 4T1).

`CCNC(=O)c1ccccc1Nc1nc(Nc2ccc(N3CCN(C)CC3)cc2OC)ncc1Cl` [Example 9-2]: the IC50 at FAK turned out to be 500 nM; in assay [1], 15 nM; in assay [2] (Mus musculus, 4T1), 810 nM.

As for `CCC(C)NS(=O)(=O)c1ccccc1Nc1nc(Nc2ccc(N3CCN(C)CC3)cc2OC)ncc1Cl` (stereo not drawn) [Example 21-1], the IC50 against FAK amounted to 70 nM; in assay [1], 1 nM; in assay [2] it was 190 nM.
